This note sets out measurements from US20240218022A1, “ANTI-VISTA MACROCYCLIC PEPTIDES AND COMPOSITIONS” (BRISTOL-MYERS SQUIBB COMPANY, priority 2022, published 2024).

Where two headings read alike, the source gives them in different places. Starred links: 1 amine or outer side, 2 acyl side, 3 side chain; linkers in the order of their positions; H or OH if unused. Positions of bridges follow the written chain, without caps; N, C: chain ends. Non-standard residues stand in square brackets, D forms with d. Residues, ends and D or L forms follow the SMILES beside them. ξ: configuration not given here. Phe(2,4-F2) = N[C@@H](Cc1ccc(F)cc1F)C(=O)O; 2Nal = N[C@@H](Cc1ccc2ccccc2c1)C(=O)O; βAsp = O=C(O)[C@H](CC(=O)[*:2])N[*:1]; Cit = NC(=O)NCCC[C@H](N)C(=O)O; Gly(cPr) = N[C@H](C(=O)O)C1CC1; Ahp(2) = CCCCC[C@H](N)C(=O)O; NMeNle = CCCC[C@H](NC)C(=O)O; Tle = CC(C)(C)[C@H](N)C(=O)O; NHexGly = CCCCCCNCC(=O)O; Nle = CCCC[C@H](N)C(=O)O; Orn = NCCC[C@H](N)C(=O)O; Aun = NCCCCCCCCCCC(=O)O; Abu = CC[C@H](N)C(=O)O; AEEA = NCCOCCOCC(=O)O; ξS = NC(CO)C(=O)O

The target of this test is T1, mouse VISTA (mVISTA) (Mus musculus, UniProt Q9D659).
T1 construct: expressed in transfected cells; host or cells: Human embryonic kidney 293T cells
T1 sequence (Q9D659 33-308): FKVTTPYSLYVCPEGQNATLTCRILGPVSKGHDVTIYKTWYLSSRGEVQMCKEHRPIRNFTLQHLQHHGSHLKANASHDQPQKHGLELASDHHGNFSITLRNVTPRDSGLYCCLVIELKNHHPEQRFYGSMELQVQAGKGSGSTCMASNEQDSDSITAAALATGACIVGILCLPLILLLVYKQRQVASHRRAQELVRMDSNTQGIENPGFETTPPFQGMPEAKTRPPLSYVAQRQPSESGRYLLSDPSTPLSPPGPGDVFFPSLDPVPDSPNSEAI
As to the kind of experiment: Cell-Based Binding High-Content Assay For mVISTA (HC CBA mVISTA). The essentials:
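This high-content binding assay uses HEK293T cells expressing murine VISTA, measuring displacement of 2 nM biotinylated peptide by fluorescent streptavidin imaging. IC50 values come from four-parameter logistic fitting.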

Where [1] appears, read: cell-based binding high-content assay, mVISTA, read-out: HC CBA miPr ISTA IC50.

A word on the IC50: it is the concentration that gives 50% inhibition.

For the molecule `CCCCCCN1CC(=O)N[C@@H](Cc2ccc(O)cc2)C(=O)N[C@@H](CCCCC)C(=O)NCC(=O)N[C@@H](CCCNC(N)=O)C(=O)N[C@@H](CC(C)C)C(=O)N[C@@H](CCCCC)C(=O)N2CCC[C@H]2C(=O)N[C@@H](C(C)C)C(=O)N[C@@H](CO)C(=O)N[C@H](C(=O)NCCOCCOCC(=O)N[C@@H](CC(=O)O)C(=O)NCCOCCOCC(=O)NCCCCCCCCCCC(=O)O)CSCC(=O)N[C@@H](Cc2ccccc2)C(=O)N[C@@H](Cc2ccc(O)cc2)C(=O)N[C@@H](CC(=O)O)C1=O` [compound 2307] ({CH2CO}-FYD[NHexGly]Y[Ahp(2)]G[Cit]L[Ahp(2)]PVSC[AEEA]D[AEEA][Aun]-OH; thioether N-14), under “cell-based binding high-content assay, read-out: HC CBA miPrISTA IC50”, the IC50 turned out to be 0.0212 µM.
Take `CCCCCCN1CC(=O)N[C@@H](Cc2ccc(O)cc2)C(=O)N[C@@H](CCCCC)C(=O)N[C@@H](CC(N)=O)C(=O)N[C@@H](CCCNC(=N)N)C(=O)N[C@@H](C)C(=O)N[C@@H](CCCCC)C(=O)N2CCC[C@H]2C(=O)N[C@@H](C(C)C)C(=O)N[C@@H](CO)C(=O)N[C@H](C(=O)NCC(=O)O)CSCC(=O)N[C@@H](Cc2ccccc2)C(=O)N[C@@H](Cc2ccc(O)cc2)C(=O)N[C@@H](CC(=O)O)C1=O` [Example 1090] ({CH2CO}-FYD[NHexGly]Y[Ahp(2)]NRA[Ahp(2)]PVSCG-OH; thioether N-14): under “293T cells expressing mouse VISTA, competition with biotinylated peptide (2 nM), read-out: HC CBA mVISTA IC50”, the IC50 came to 0.008 µM.
As to `CCCCCCN1CC(=O)N[C@@H](Cc2ccc(O)cc2)C(=O)N[C@@H](CCCC)C(=O)N[C@@H](CC(N)=O)C(=O)N[C@@H](CCCNC(=N)N)C(=O)N[C@@H](CC(C)C)C(=O)N[C@@H](C2CC2)C(=O)N2CCC[C@H]2C(=O)N[C@@H](C(C)C)C(=O)N[C@@H](CC(=O)O)C(=O)N[C@H](C(=O)NCC(=O)O)CSCC(=O)N[C@@H](Cc2ccc3ccccc3c2)C(=O)N[C@@H](Cc2c[nH]c3ccccc23)C(=O)N[C@@H](CC(=O)O)C1=O` [compound 1182] ({CH2CO}-[2Nal]WD[NHexGly]Y[Nle]NRL[Gly(cPr)]PVDCG-OH; thioether N-14), for the setting “read-out: HC CBA mVISTA IC50”, the IC50 came to 0.0236 µM.
Take `CCCCCCN1CC(=O)N[C@@H](Cc2ccc(O)cc2)C(=O)N[C@@H](CC)C(=O)N[C@@H](CC(N)=O)C(=O)N[C@@H](CCCN)C(=O)N(C)[C@@H](CCCC)C(=O)N[C@@H](CCCCC)C(=O)N2CCC[C@H]2C(=O)N[C@@H](C(C)(C)C)C(=O)N[C@@H](CO)C(=O)N[C@H](C(=O)N[C@@H](CC(=O)NCCOCCOCC(=O)N[C@@H](CC(=O)O)C(=O)NCCOCCOCC(=O)NCCCCCCCCCCC(=O)O)C(=O)O)CSCC(=O)N[C@@H](Cc2ccccc2)C(=O)N[C@@H](Cc2ccc(O)cc2)C(=O)N[C@@H](CC(=O)O)C1=O` [compound 2060] ({CH2CO}-FYD[NHexGly]Y[Abu]N[Orn][NMeNle][Ahp(2)]P[Tle]SC[βAsp][AEEA]D[AEEA][Aun]-OH; thioether N-14): the IC50 under setting [1] is 0.0247 µM.
As to `CCCCCCN1CC(=O)N[C@@H](Cc2ccc(O)cc2)C(=O)N[C@@H](CC(C)C)C(=O)N[C@@H](CC(N)=O)C(=O)N[C@@H](CCCNC(=N)N)C(=O)N[C@@H](CC(C)C)C(=O)N[C@@H](CCCCC)C(=O)N2CCC[C@H]2C(=O)N[C@@H](C(C)C)C(=O)N[C@@H](CO)C(=O)N[C@H](C(=O)N[C@@H](CC(=O)NCCOCCOCC(=O)N[C@@H](CC(=O)O)C(=O)NCCOCCOCC(=O)NCCCCCCCCCCC(=O)O)C(=O)O)CSCC(=O)N[C@@H](Cc2ccccc2)C(=O)N[C@@H](Cc2ccc(O)cc2)C(=O)N[C@@H](CC(=O)O)C1=O` [compound 2003] ({CH2CO}-FYD[NHexGly]YLNRL[Ahp(2)]PVSC[βAsp][AEEA]D[AEEA][Aun]-OH; thioether N-14), the IC50 under setting [1] is 0.0378 µM.
With `CCCCCCN1CC(=O)N[C@@H](Cc2ccc(O)cc2)C(=O)N[C@@H](CCCCC)C(=O)N[C@@H](CC(N)=O)C(=O)N[C@@H](CCCNC(=N)N)C(=O)N(C)[C@@H](CCCC)C(=O)N[C@@H](CCCCC)C(=O)N2CCC[C@H]2C(=O)N[C@@H](C(C)C)C(=O)N[C@@H](CC(=O)O)C(=O)N[C@H](C(=O)NC(CO)C(=O)O)CSCC(=O)N[C@@H](Cc2ccc3ccccc3c2)C(=O)N[C@@H](Cc2ccc(F)cc2F)C(=O)N[C@@H](CC(=O)O)C1=O` (stereo partly drawn) [compound 1202] ({CH2CO}-[2Nal][Phe(2,4-F2)]D[NHexGly]Y[Ahp(2)]NR[NMeNle][Ahp(2)]PVDC[ξS]-OH; thioether N-14), where the note is “read-out: HC CBA mVISTA IC50”, the IC50 worked out at 0.0161 µM.
